Test results reported in US12442035B2, “Compositions and methods for detecting antibiotic responsive mRNA expression signatures and uses thereof” (THE BROAD INSTITUTE, INC., priority 2018, dated 2025).
Converted amounts (≈) assume the structure as drawn. “Also recorded” adds a separate entry of the source. Where two headings read alike, the source gives them in different places. Values belong to the compound of their own block, whether it stands above or below them.

Tests used:
[1] = tested on: K. pneumoniae clinical isolates; assay: Standard broth microdilution MIC; assay type: cell-based, Klebsiella pneumoniae
From the text: (§3) All strains in this study (Table 7) were obtained from clinical or reference microbiological laboratories, including both local hospitals and MDRO strain collections from the Centers for Disease Control's Antibiotic Resistance Isolate Bank (see e.g., World Wide Web at (www).cdc.gov/ARIsolateBank/) and the New York State Department of Health.

[2] = tested on: E. coli clinical isolates; assay: Standard broth microdilution MIC; assay type: cell-based, Escherichia coli; settings: for MIC: Escherichia coli
From the text: as §3

[3] = tested on: K. pneumoniae clinical isolates; assay: RNA-Seq transcriptional response to antibiotic exposure, GO term enrichment; assay type: cell-based, Klebsiella pneumoniae; settings: CLSI breakpoint concentration, 0, 10, 30, 60 minutes
From the text: (§1) Fisher's combined probability test was used to select only those genes whose expression after antibiotic treatment was statistically distinguishable from its expression at any timepoint in the untreated samples. Gene ontology (GO) terms were assigned using blast2GO (version 1.4.4), with hypergeometric testing for enrichment. For each pathogen-antibiotic pair, the fold-change threshold in DESeq2 used to test statistical significance was increased to select 60-100 antibiotic-responsive transcripts with maximal stringency, a number readily accommodated by the NanoString® assay format. […] As with responsive genes, the fold-change threshold was varied in order to select the top 10-20 control transcripts. […] See Supplemental Methods sections below for further details.
(§2) After antibiotic treatment as described in the above Materials and Methods section, cells were pelleted, resuspended in 0.5 mL Trizol reagent (ThermoFisher Scientific), transferred to 1.5 mL screw-cap tubes containing 0.25 mL of 0.1 mm diameter Zirconia/Silica beads (BioSpec Products), and lysed mechanically via bead-beating for 3-5 one-minute cycles on a Minibeadbeater-16 (BioSpec) or one 90-second cycle at 10 m/sec on a FastPrep (MP Bio). After addition of 0.1 mL chloroform, each sample tube was mixed thoroughly by inversion, incubated for 3 minutes at room temperature, and centrifuged at 12,000×g for 15 minutes at 4° C. […]

[4] = tested on: A. baumannii clinical isolates; assay: as above; assay type: cell-based, Acinetobacter baumannii; settings: CLSI breakpoint concentration, 0, 10, 30, 60 minutes
From the text: as §1, §2

[5] = tested on: E. coli clinical isolates; assay: as above; assay type: cell-based, Escherichia coli; settings: CLSI breakpoint concentration, 0, 10, 30, 60 minutes
[6] = tested on: S. aureus clinical isolates; assay: Standard broth microdilution MIC; assay type: cell-based; settings: Staphylococcus aureus, read-out: levo MIC
From the text: as §3

Structure (SMILES): C[C@@H](O)[C@H]1C(=O)N2C(C(=O)O)=C(S[C@@H]3CN[C@H](C(=O)N(C)C)C3)[C@H](C)[C@H]12 [mero]
mero MIC ([1]; KpMero strain AR0034): 2 mg/L
mero MIC ([1]; KpMero strain AR0040): >32 mg/L
mero MIC ([1]; KpMero strain AR0041): 16 mg/L
mero MIC ([1]; KpMero strain AR0042): <0.5 mg/L
mero MIC ([1]; KpMero strain AR0043): 2 mg/L
mero MIC ([1]; KpMero strain AR0044): 4 mg/L
mero MIC ([1]; KpMero strain AR0047): 4 mg/L
mero MIC ([1]; KpMero strain AR0075): 8 mg/L
mero MIC ([1]; KpMero strain AR0087): 1 mg/L
mero MIC ([1]; KpMero strain AR0135): 8 mg/L
mero MIC ([1]; KpMero strain AR0139): 32 mg/L
mero MIC ([1]; KpMero strain BAA2524 (RB554), value marked *): 0.5* mg/L
mero MIC ([1]; KpMero strain BIDMC_14): 16 mg/L
mero MIC ([1]; KpMero strain BIDMC_22): 0.25 mg/L
mero MIC ([1]; KpMero strain BIDMC_31): 0.125 mg/L
mero MIC ([1]; KpMero strain BIDMC_35): >32 mg/L
mero MIC ([1]; KpMero strain BIT-03): 8 mg/L
mero MIC ([1]; KpMero strain BIT-04): 32 mg/L
mero MIC ([1]; KpMero strain BIT-05): >32 mg/L
mero MIC ([1]; KpMero strain BIT-12): <0.5 mg/L
mero MIC ([1]; KpMero strain BIT-16): ≤0.5 mg/L
mero MIC ([1]; KpMero strain BWH_2): 16 mg/L
mero MIC ([1]; KpMero strain BWH_15): 8 mg/L
mero MIC ([1]; KpMero strain BWH_30): ≤0.5 mg/L
mero MIC ([1]; KpMero strain BWH_36): 16 mg/L
mero MIC ([1]; KpMero strain CDC_1500610): ≤0.5 mg/L
mero MIC ([1]; KpMero strain IDR1200023303): >32 mg/L
mero MIC ([1]; KpMero strain IDR1600031102-01-00): >32 mg/L
mero MIC ([1]; KpMero strain IDR1600037310): 1 mg/L
mero MIC ([1]; KpMero strain IDR1600057468-01-00): 4 mg/L
mero MIC ([1]; KpMero strain MGH_17): ≤0.5 mg/L
mero MIC ([1]; KpMero strain MGH_18): ≤0.5 mg/L
mero MIC ([1]; KpMero strain MGH_19): ≤0.5 mg/L
mero MIC ([1]; KpMero strain MGH_20): ≤0.5 mg/L
mero MIC ([1]; KpMero strain MGH_31): 8 mg/L
mero MIC ([1]; KpMero strain MGH_35): 2 mg/L
mero MIC ([1]; KpMero strain MGH_36): ≤0.5 mg/L
mero MIC ([1]; KpMero strain MGH_39): 2 mg/L
mero MIC ([1]; KpMero strain MGH_48): ≤0.5 mg/L
mero MIC ([1]; KpMero strain MGH_71): 32 mg/L
mero MIC ([1]; KpMero strain RB039): ≤0.5 mg/L
mero MIC ([1]; KpMero strain RB041): ≤0.5 mg/L
mero MIC ([1]; KpMero strain RB042): ≤0.5 mg/L
mero MIC ([1]; KpMero strain UCI_7): 0.25 mg/L
mero MIC ([1]; KpMero strain UCI_19): >32 mg/L
mero MIC ([1]; KpMero strain UCI_37): 32 mg/L
mero MIC ([1]; KpMero strain UCI_38): ≤0.5 mg/L
mero MIC ([1]; KpMero strain UCI_44): 0.25 mg/L
mero MIC ([1]; KpMero strain UCI_61): 32 mg/L
mero MIC ([1]; KpMero strain UCI_64): 0.25 mg/L
mero MIC ([2]; EcMero strain AR0048): 32 mg/L
mero MIC ([2]; EcMero strain AR0055): 8 mg/L
mero MIC ([2]; EcMero strain AR0058): 0.25 mg/L
mero MIC ([2]; EcMero strain AR0061): 8 mg/L
mero MIC ([2]; EcMero strain AR0069): 16 mg/L
mero MIC ([2]; EcMero strain AR0077): 0.5 mg/L
mero MIC ([2]; EcMero strain AR0089): 0.5 mg/L
mero MIC ([2]; EcMero strain AR0104, value marked *): 1* mg/L
mero MIC ([2]; EcMero strain BAA2469): 16 mg/L
mero MIC ([2]; EcMero strain BAA2523 (RB553), value marked *): 0.5* mg/L
mero MIC ([2]; EcMero strain BIDMC_77): 0.5 mg/L
mero MIC ([2]; EcMero strain IDR1200024571): >32 mg/L
mero MIC ([2]; EcMero strain IDR1200039757): >32 mg/L
mero MIC ([2]; EcMero strain IDR1300027657): 1 mg/L
mero MIC ([2]; EcMero strain IDR1600029769): 8 mg/L
mero MIC ([2]; EcMero strain IDR1600035372): 0.5 mg/L

Structure (SMILES): C[C@@H](O)[C@H]1C(=O)N2C(C(=O)O)=C(S[C@@H]3CN[C@H](C(=O)N(C)C)C3)[C@H](C)[C@H]12 [meropenem]
Gene ontology enrichment of antibiotic-responsive transcripts [3]: affected lipopolysaccharide biosynthesis
Gene ontology enrichment of antibiotic-responsive transcripts [4]: induced a heat shock response
Gene ontology enrichment of antibiotic-responsive transcripts [5]: affected lipopolysaccharide biosynthesis; also recorded: induced a heat shock response
MIC ([2]; BAA2523, E. coli BAA2523 (blaOXA-48), inoculum of 10^7 cfu/mL): ≥ 32 µg/mL
MIC ([2]; BAA2523, E. coli BAA2523 (blaOXA-48), standard broth microdilution, inoculum of 10^5 cfu/mL): 0.5 to 1 µg/mL (≈ 1.3 to 2.61 µM)
MIC ([2]; E. coli AR0104 (blaKPC-4), inoculum of 10^7 cfu/mL): ≥ 32 µg/mL
MIC ([2]; E. coli AR0104 (blaKPC-4), standard broth microdilution, inoculum of 10^5 cfu/mL): 0.5 to 1 µg/mL (≈ 1.3 to 2.61 µM)

MIC ([6]; S. aureus strain RB003): 0.125 µg/mL (≈ 0.346 µM)
MIC ([6]; S. aureus strain RB004): 32 µg/mL (≈ 88.6 µM)
MIC ([6]; S. aureus strain RB006): 0.06 µg/mL (≈ 0.166 µM)
MIC ([6]; S. aureus strain RB007): 16 µg/mL (≈ 44.3 µM)
MIC ([6]; S. aureus strain RB010): > 32 µg/mL
MIC ([6]; S. aureus strain RB045): 32 µg/mL (≈ 88.6 µM)
MIC ([6]; S. aureus strain RB047): > 32 µg/mL
MIC ([6]; S. aureus strain RB064): 8 µg/mL (≈ 22.1 µM)
MIC ([6]; S. aureus strain RB065): 0.06 µg/mL (≈ 0.166 µM)
MIC ([6]; S. aureus strain RB066): 0.06 µg/mL (≈ 0.166 µM)
MIC ([6]; S. aureus strain RB067): 0.13 µg/mL (≈ 0.36 µM)
MIC ([6]; S. aureus strain RB0069): 0.13 µg/mL (≈ 0.36 µM)
MIC ([6]; S. aureus strain RB072): 4 µg/mL (≈ 11.1 µM)
MIC ([6]; S. aureus strain RB074): 32 µg/mL (≈ 88.6 µM)
MIC ([6]; S. aureus strain RB090): 32 µg/mL (≈ 88.6 µM)
MIC ([6]; S. aureus strain RB095): 32 µg/mL (≈ 88.6 µM)
MIC ([6]; S. aureus strain RB096): 0.13 µg/mL (≈ 0.36 µM)
MIC ([6]; S. aureus strain RB098): 0.13 µg/mL (≈ 0.36 µM)
MIC ([6]; S. aureus strain RB211): 16 µg/mL (≈ 44.3 µM)
MIC ([6]; S. aureus strain RB219): 32 µg/mL (≈ 88.6 µM)
MIC ([6]; S. aureus strain RB221): 0.13 µg/mL (≈ 0.36 µM)
MIC ([6]; S. aureus strain RB223): 0.13 µg/mL (≈ 0.36 µM)
MIC ([6]; S. aureus strain RB245): 0.25 µg/mL (≈ 0.692 µM)
MIC ([6]; S. aureus strain RB247): 0.5 µg/mL (≈ 1.38 µM)
Structure (SMILES): C[C@H]1COc2c(N3CCN(C)CC3)c(F)cc3c(=O)c(C(=O)O)cn1c23 [levofloxacin]
